Laboratory results from patent US9469650B2, “Melampomagnolide B derivatives” (BOARD OF TRUSTEES OF THE UNIVERSITY OF ARKANSAS, priority 2013, dated 2016).
Where two headings read alike, the source gives them in different places.

What was measured:
SK-OV-3 = test: panel of 60 human tumor cell lines, growth inhibition (Ovarian Cancer)
UACC-62 = test: panel of 60 human tumor cell lines, growth inhibition (Melanoma)
OVCAR-3 = test: panel of 60 human tumor cell lines, growth inhibition (Ovarian Cancer)
HCT-15 = test: panel of 60 human tumor cell lines, growth inhibition (Colon Cancer)
DU-145 = test: panel of 60 human tumor cell lines, growth inhibition (Prostate Cancer)
RXF 393 = test: panel of 60 human tumor cell lines, growth inhibition (Renal Cancer); settings: for Percent Growth: RXF 393
HCT-116 = test: panel of 60 human tumor cell lines, growth inhibition (Colon Cancer); settings: for Percent Growth: HCT-116
SNB-75 = test: panel of 60 human tumor cell lines, growth inhibition (CNS Cancer)
BT-549 = test: panel of 60 human tumor cell lines, growth inhibition (Breast Cancer)
UO-31 = test: panel of 60 human tumor cell lines, growth inhibition (Renal Cancer)
NCI-H322M = test: panel of 60 human tumor cell lines, growth inhibition (Non-Small Cell Lung Cancer)
NCI-H226 = test: as above
M14 = test: panel of 60 human tumor cell lines, growth inhibition (Melanoma)
SK-MEL-2 = test: as above
MCF7 = test: panel of 60 human tumor cell lines, growth inhibition (Breast Cancer); settings: for Percent Growth: MCF7
786-0 = test: panel of 60 human tumor cell lines, growth inhibition (Renal Cancer)

C=C1C(=O)O[C@H]2[C@H]1CC/C(COC(=O)CCC(=O)NCc1ccc(Cl)nc1)=C\CC[C@@]1(C)O[C@@H]21 [JVM 96]
GI50 (SK-OV-3; Homo sapiens, SK-OV-3): 28 µM | CC50 (SK-OV-3; Homo sapiens, SK-OV-3, read-out: LC50): > 100 µM | IC (TGI) (SK-OV-3; Homo sapiens, SK-OV-3, read-out: TGI): 70.5 µM | Percent Growth (SK-OV-3; SK-OV-3, Log10 Concentration −4.0): −19% | Percent Growth (SK-OV-3; SK-OV-3, Log10 Concentration −5.0): 106% | Percent Growth (SK-OV-3; SK-OV-3, Log10 Concentration −6.0): 106% | Percent Growth (SK-OV-3; SK-OV-3, Log10 Concentration −7.0): 104% | Percent Growth (SK-OV-3; SK-OV-3, Log10 Concentration −8.0): 99% | GI50 (UACC-62; Homo sapiens, UACC-62): 6.61 µM | CC50 (UACC-62; Homo sapiens, UACC-62, read-out: LC50): 51.2 µM | IC (TGI) (UACC-62; Homo sapiens, UACC-62, read-out: TGI): 20.9 µM | Percent Growth (UACC-62; UACC-62, Log10 Concentration −4.0): −87% | Percent Growth (UACC-62; UACC-62, Log10 Concentration −5.0): 41% | Percent Growth (UACC-62; UACC-62, Log10 Concentration −6.0): 90% | Percent Growth (UACC-62; UACC-62, Log10 Concentration −7.0): 98% | Percent Growth (UACC-62; UACC-62, Log10 Concentration −8.0): 98% | GI50 (OVCAR-3; Homo sapiens, OVCAR-3): 4.54 µM | CC50 (OVCAR-3; Homo sapiens, OVCAR-3, read-out: LC50): 40.3 µM | IC (TGI) (OVCAR-3; Homo sapiens, OVCAR-3, read-out: TGI): 15.7 µM | Percent Growth (OVCAR-3; OVCAR-3, Log10 Concentration −4.0): −98% | Percent Growth (OVCAR-3; OVCAR-3, Log10 Concentration −5.0): 24% | Percent Growth (OVCAR-3; OVCAR-3, Log10 Concentration −6.0): 100% | Percent Growth (OVCAR-3; OVCAR-3, Log10 Concentration −7.0): 107% | Percent Growth (OVCAR-3; OVCAR-3, Log10 Concentration −8.0): 96% | Percent Growth (HCT-15; HCT-15, Log10 Concentration −4.0): −88% | Percent Growth (HCT-15; HCT-15, Log10 Concentration −5.0): 16% | Percent Growth (HCT-15; HCT-15, Log10 Concentration −6.0): 8.9% | Percent Growth (HCT-15; HCT-15, Log10 Concentration −7.0): 93% | Percent Growth (HCT-15; HCT-15, Log10 Concentration −8.0): 93% | GI50 (HCT-15; Homo sapiens, HCT-15): 3.43 µM | CC50 (HCT-15; Homo sapiens, HCT-15, read-out: LC50): 43.1 µM | IC (TGI) (HCT-15; Homo sapiens, HCT-15, read-out: TGI): 14.2 µM | Percent Growth (DU-145; DU-145, Log10 Concentration −4.0): −97% | Percent Growth (DU-145; DU-145, Log10 Concentration −5.0): 16% | Percent Growth (DU-145; DU-145, Log10 Concentration −6.0): 98% | Percent Growth (DU-145; DU-145, Log10 Concentration −7.0): 106% | Percent Growth (DU-145; DU-145, Log10 Concentration −8.0): 99% | GI50 (DU-145; Homo sapiens, DU-145): 3.84 µM | CC50 (DU-145; Homo sapiens, DU-145, read-out: LC50): 38.4 µM | IC (TGI) (DU-145; Homo sapiens, DU-145, read-out: TGI): 13.9 µM | GI50 (RXF 393; Homo sapiens, RXF 393, RXF 393): 3.57 µM | CC50 (RXF 393; Homo sapiens, RXF 393, read-out: LC50): 48.4 µM | IC (TGI) (RXF 393; Homo sapiens, RXF 393, read-out: TGI): 14.4 µM | Percent Growth (RXF 393; Log10 Concentration −4.0): −80% | Percent Growth (RXF 393; Log10 Concentration −5.0): 15% | Percent Growth (RXF 393; Log10 Concentration −6.0): 93% | Percent Growth (RXF 393; Log10 Concentration −7.0): 100% | Percent Growth (RXF 393; Log10 Concentration −8.0): 93% | Percent Growth (HCT-116; Log10 Concentration −4.0): −100% | Percent Growth (HCT-116; Log10 Concentration −5.0): 13% | Percent Growth (HCT-116; Log10 Concentration −6.0): 97% | Percent Growth (HCT-116; Log10 Concentration −7.0): 93% | Percent Growth (HCT-116; Log10 Concentration −8.0): 97% | GI50 (HCT-116; Homo sapiens, HCT-116, HCT-116): 3.62 µM | CC50 (HCT-116; Homo sapiens, HCT-116, read-out: LC50): 36.2 µM | IC (TGI) (HCT-116; Homo sapiens, HCT-116, read-out: TGI): 13.1 µM | GI50 (SNB-75; Homo sapiens, SNB-75): 4.59 µM | CC50 (SNB-75; Homo sapiens, SNB-75, read-out: LC50): 47 µM | IC (TGI) (SNB-75; Homo sapiens, SNB-75, read-out: TGI): 20.1 µM | Percent Growth (SNB-75; SNB-75, Log10 Concentration −4.0): −94% | Percent Growth (SNB-75; SNB-75, Log10 Concentration −5.0): 41% | Percent Growth (SNB-75; SNB-75, Log10 Concentration −6.0): 68% | Percent Growth (SNB-75; SNB-75, Log10 Concentration −7.0): 69% | Percent Growth (SNB-75; SNB-75, Log10 Concentration −8.0): 80% | Percent Growth (BT-549; BT-549, Log10 Concentration −4.0): −97% | Percent Growth (BT-549; BT-549, Log10 Concentration −5.0): 32% | Percent Growth (BT-549; BT-549, Log10 Concentration −6.0): 93% | Percent Growth (BT-549; BT-549, Log10 Concentration −7.0): 139% | Percent Growth (BT-549; BT-549, Log10 Concentration −8.0): 102% | GI50 (BT-549; Homo sapiens, BT-549): 5.14 µM | CC50 (BT-549; Homo sapiens, BT-549, read-out: LC50): 43.1 µM | IC (TGI) (BT-549; Homo sapiens, BT-549, read-out: TGI): 17.8 µM | GI50 (UO-31; Homo sapiens, UO-31): 10.2 µM | CC50 (UO-31; Homo sapiens, UO-31, read-out: LC50): 53.7 µM | IC (TGI) (UO-31; Homo sapiens, UO-31, read-out: TGI): 23.4 µM | Percent Growth (UO-31; UO-31, Log10 Concentration −4.0): −87% | Percent Growth (UO-31; UO-31, Log10 Concentration −5.0): 51% | Percent Growth (UO-31; UO-31, Log10 Concentration −6.0): 92% | Percent Growth (UO-31; UO-31, Log10 Concentration −7.0): 88% | Percent Growth (UO-31; UO-31, Log10 Concentration −8.0): 87% | GI50 (NCI-H322M; Homo sapiens): 29.6 µM | CC50 (NCI-H322M; Homo sapiens, read-out: LC50): > 100 µM | IC (TGI) (NCI-H322M; Homo sapiens, read-out: TGI): > 100 µM | Percent Growth (NCI-H322M; Log10 Concentration −4.0): 5% | Percent Growth (NCI-H322M; Log10 Concentration −5.0): 90% | Percent Growth (NCI-H322M; Log10 Concentration −6.0): 99% | Percent Growth (NCI-H322M; Log10 Concentration −7.0): 95% | Percent Growth (NCI-H322M; Log10 Concentration −8.0): 92% | GI50 (NCI-H226; Homo sapiens, NCI-H226): 12.7 µM | IC (TGI) (NCI-H226; Homo sapiens, NCI-H226, read-out: TGI): 32 µM | Percent Growth (NCI-H226; NCI-H226, Log10 Concentration −4.0): −61% | Percent Growth (NCI-H226; NCI-H226, Log10 Concentration −5.0): 63% | Percent Growth (NCI-H226; NCI-H226, Log10 Concentration −6.0): 94% | Percent Growth (NCI-H226; NCI-H226, Log10 Concentration −7.0): 97% | Percent Growth (NCI-H226; NCI-H226, Log10 Concentration −8.0): 96% | GI50 (M14; Homo sapiens, M14): 5.75 µM | CC50 (M14; Homo sapiens, M14, read-out: LC50): 50.3 µM | IC (TGI) (M14; Homo sapiens, M14, read-out: TGI): 19.5 µM | Percent Growth (M14; M14, Log10 Concentration −4.0): −86% | Percent Growth (M14; M14, Log10 Concentration −5.0): 35% | Percent Growth (M14; M14, Log10 Concentration −6.0): 96% | Percent Growth (M14; M14, Log10 Concentration −7.0): 91% | Percent Growth (M14; M14, Log10 Concentration −8.0): 98% | GI50 (SK-MEL-2; Homo sapiens, SK-MEL-2): 11.3 µM | CC50 (SK-MEL-2; Homo sapiens, SK-MEL-2, read-out: LC50): 64.1 µM | IC (TGI) (SK-MEL-2; Homo sapiens, SK-MEL-2, read-out: TGI): 26.9 µM | Percent Growth (SK-MEL-2; SK-MEL-2, Log10 Concentration −4.0): −76% | Percent Growth (SK-MEL-2; SK-MEL-2, Log10 Concentration −5.0): 57% | Percent Growth (SK-MEL-2; SK-MEL-2, Log10 Concentration −6.0): 97% | Percent Growth (SK-MEL-2; SK-MEL-2, Log10 Concentration −7.0): 92% | Percent Growth (SK-MEL-2; SK-MEL-2, Log10 Concentration −8.0): 90% | GI50 (MCF7; Homo sapiens, MCF7, MCF7): 3.2 µM | CC50 (MCF7; Homo sapiens, MCF7, read-out: LC50): 58.9 µM | IC (TGI) (MCF7; Homo sapiens, MCF7, read-out: TGI): 13.6 µM | Percent Growth (MCF7; Log10 Concentration −4.0): −68% | Percent Growth (MCF7; Log10 Concentration −5.0): 10% | Percent Growth (MCF7; Log10 Concentration −6.0): 90% | Percent Growth (MCF7; Log10 Concentration −7.0): 89% | Percent Growth (MCF7; Log10 Concentration −8.0): 90% | Percent Growth (HL-60(TB); Log10 Concentration −4.0): −48% | Percent Growth (HL-60(TB); Log10 Concentration −5.0): −5% | Percent Growth (HL-60(TB); Log10 Concentration −6.0): 76% | Percent Growth (HL-60(TB); Log10 Concentration −7.0): 78% | Percent Growth (HL-60(TB); Log10 Concentration −8.0): 91% | Percent Growth (786-0; 786-0, Log10 Concentration −4.0): −91% | Percent Growth (786-0; 786-0, Log10 Concentration −5.0): 26% | Percent Growth (786-0; 786-0, Log10 Concentration −6.0): 94% | Percent Growth (786-0; 786-0, Log10 Concentration −7.0): 92% | Percent Growth (786-0; 786-0, Log10 Concentration −8.0): 94% | GI50 (786-0; Homo sapiens, 786-0): 4.43 µM | CC50 (786-0; Homo sapiens, 786-0, read-out: LC50): 44.4 µM | IC (TGI) (786-0; Homo sapiens, 786-0, read-out: TGI): 16.6 µM
